This note sets out measurements from patent publication US10072011B2, “Substituted bridged urea analogs as sirtuin modulators” (GlaxoSmithKline Intellectual Property (No.2) Limited, priority 2014, dated 2018).

Structures are written as SMILES. Where two headings read alike, the source gives them in different places. Some results are limits rather than exact numbers.

The assay addresses T1, SIRT1 (Homo sapiens, UniProt Q96EB6).
T1 sequence (Q96EB6 1-747): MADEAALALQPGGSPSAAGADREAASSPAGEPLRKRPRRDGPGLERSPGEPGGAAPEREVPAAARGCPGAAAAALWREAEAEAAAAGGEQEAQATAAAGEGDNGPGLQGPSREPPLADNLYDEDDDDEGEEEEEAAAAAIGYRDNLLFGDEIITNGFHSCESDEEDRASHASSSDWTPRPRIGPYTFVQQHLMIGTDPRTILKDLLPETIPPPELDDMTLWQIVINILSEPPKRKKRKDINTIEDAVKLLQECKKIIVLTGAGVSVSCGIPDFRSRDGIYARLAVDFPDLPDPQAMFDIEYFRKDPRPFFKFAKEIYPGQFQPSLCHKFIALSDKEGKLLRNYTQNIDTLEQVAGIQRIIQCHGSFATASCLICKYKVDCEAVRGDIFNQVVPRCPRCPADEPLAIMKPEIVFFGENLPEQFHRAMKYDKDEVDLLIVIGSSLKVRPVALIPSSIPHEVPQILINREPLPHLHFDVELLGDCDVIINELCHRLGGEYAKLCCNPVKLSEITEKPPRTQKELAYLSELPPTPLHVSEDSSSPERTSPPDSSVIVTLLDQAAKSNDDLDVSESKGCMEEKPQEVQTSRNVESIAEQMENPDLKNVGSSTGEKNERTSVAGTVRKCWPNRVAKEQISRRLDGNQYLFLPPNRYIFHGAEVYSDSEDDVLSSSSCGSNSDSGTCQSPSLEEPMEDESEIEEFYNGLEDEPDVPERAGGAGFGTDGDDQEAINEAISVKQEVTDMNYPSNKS
Briefly: Trp mass spectrometry assay of SIRT1 activation (Ac-R-H-K-K(Ac)-W-NH2 peptide). It is filed as biochemical. The conditions noted are these: for Emax: 25 min, read-out: TRP MAX RESP (percent maximum fold activation). A digest of the protocol:
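Mass spectrometry read-out (OAADPR formed, or deacetylated Trp peptide) after a 25 min NAD-dependent deacetylation by E. coli-expressed His-SIRT1, stopped with formic acid.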

Setting [1] is: Trp peptide 0.5 μM, 120 μM βNAD+, 10 nM SIRT1, 25 min at 25° C., relative to control (100%).
The mark [2] stands for this setting: Trp peptide 0.5 μM, 120 μM βNAD+, 10 nM SIRT1, 25 min at 25° C.

Take `O=C(NCc1ccc(F)cc1)c1ccc2c(n1)N(C(=O)Nc1cc(OC[C@H](O)CO)ccn1)[C@H]1CCN2C1` [Example 240, (4S)—N5-(4-((R)-2,3-dihydroxypropoxy)pyridin-2-yl)-N7-(4-fluorobenzyl)-3,4-dihydro-1,4-methanopyrido[2,3-b][1,4]diazepine-5,7(2H)-dicarboxamide]: under setting [1], the Emax was above 150%. In addition, the “TRP Activity (EC1.5, concentration of test compound that results in 150% activation of SIRT1)” value under setting [2] is reported as “A (EC1.5<1 μM)”.
The like results for `O=C(NC1(C(F)(F)F)CC1)c1ccc2c(n1)N(C(=O)Nc1ccccn1)[C@H]1CCN2C1` [Example 241, (4S)—N5-(pyridin-2-yl)-N7-(1-(trifluoromethyl)cyclopropyl)-3,4-dihydro-1,4-methanopyrido[2,3-b][1,4]diazepine-5,7(2H)-dicarboxamide] were, in that order, above 150% and “A (EC1.5<1 μM)”.
As to `C[C@@H](NC(=O)c1ccc2c(n1)N(C(=O)Nc1nccc(OC[C@H](O)CO)n1)[C@H]1CCN2C1)C(F)(F)F` [Example 244, (4S)—N5-(4-((R)-2,3-dihydroxypropoxy)pyrimidin-2-yl)-N7-((R)-1,1,1-trifluoropropan-2-yl)-3,4-dihydro-1,4-methanopyrido[2,3-b][1,4]diazepine-5,7(2H)-dicarboxamide], the Emax under setting [1] was above 150%. The “TRP Activity (EC1.5, concentration of test compound that results in 150% activation of SIRT1)” value under setting [2] is reported as “A (EC1.5<1 μM)”.
On to `O=C(NC1CC(F)(F)C1)c1ccc2c(n1)N(C(=O)Nc1ccccn1)[C@H]1CCN2C1` [Example 246, (4S)—N7-(3,3-difluorocyclobutyl)-N5-(pyridin-2-yl)-3,4-dihydro-1,4-methanopyrido[2,3-b][1,4]diazepine-5,7(2H)-dicarboxamide], for which, under setting [1], the Emax was above 150%. Under setting [2], the “TRP Activity (EC1.5, concentration of test compound that results in 150% activation of SIRT1)” value is “A (EC1.5<1 μM)”.
As to `Cc1cccnc1NC(=O)N1c2nc(C(=O)N[C@H](C)C(F)(F)F)ccc2N2CC[C@H]1C2` [Example 247, (4S)—N5-(3-methylpyridin-2-yl)-N7-((R)-1,1,1-trifluoropropan-2-yl)-3,4-dihydro-1,4-methanopyrido[2,3-b][1,4]diazepine-5,7(2H)-dicarboxamide], the Emax under setting [1] is above 150%. Under setting [2], the “TRP Activity (EC1.5, concentration of test compound that results in 150% activation of SIRT1)” value is “B (EC1.5 1-25 μM)”.
In the same order, the values of `O=C(NC1CC1)c1ccc2c(n1)N(C(=O)Nc1cc(OC[C@@H](O)CO)ccn1)[C@H]1CCN2C1` [Example 250, (4S)—N7-cyclopropyl-N5-(4-((S)-2,3-dihydroxypropoxy)pyridin-2-yl)-3,4-dihydro-1,4-methanopyrido[2,3-b][1,4]diazepine-5,7(2H)-dicarboxamide] are above 150% and “A (EC1.5<1 μM)”.
As for `C[C@@H](NC(=O)c1ccc2c(n1)N(C(=O)Nc1ccon1)[C@H]1CCN2C1)C(F)(F)F` [Example 251, (4S)—N5-(isoxazol-3-yl)-N7-((R)-1,1,1-trifluoropropan-2-yl)-3,4-dihydro-1,4-methanopyrido[2,3-b][1,4]diazepine-5,7(2H)-dicarboxamide], the Emax under setting [1] was above 150%. Under setting [2], the “TRP Activity (EC1.5, concentration of test compound that results in 150% activation of SIRT1)” value is recorded as “B (EC1.5 1-25 μM)”.
For `Cc1ncc(-c2ccnc(NC(=O)N3c4nc(C(=O)N[C@H](C)C(F)(F)F)cc(C)c4N4CC[C@H]3C4)c2)o1` [Example 252, (4S)-9-methyl-N5-(4-(2-methyloxazol-5-yl)pyridin-2-yl)-N7-((R)-1,1,1-trifluoropropan-2-yl)-3,4-dihydro-1,4-methanopyrido[2,3-b][1,4]diazepine-5,7(2H)-dicarboxamide], the Emax under setting [1] is below 150%. For the same compound, the “TRP Activity (EC1.5, concentration of test compound that results in 150% activation of SIRT1)” value under setting [2] is recorded as “A (EC1.5<1 μM)”.
In the same order, the values of `C#CC(C)(C)NC(=O)c1ccc2c(n1)N(C(=O)Nc1ccccn1)[C@H]1CCN2C1` [Example 253, (4S)—N7-(2-methylbut-3-yn-2-yl)-N5-(pyridin-2-yl)-3,4-dihydro-1,4-methanopyrido[2,3-b][1,4]diazepine-5,7(2H)-dicarboxamide] are above 150% and “B (EC1.5 1-25 μM)”.
The like results for `CN(CC(F)(F)F)C(=O)c1ccc2c(n1)N(C(=O)Nc1ccccn1)[C@H]1CCN2C1` [Example 254, (4S)—N7-methyl-N5-(pyridin-2-yl)-N7-(2,2,2-trifluoroethyl)-3,4-dihydro-1,4-methanopyrido[2,3-b][1,4]diazepine-5,7(2H)-dicarboxamide] were, in that order, above 150% and “B (EC1.5 1-25 μM)”.
Take `Cc1nc(NC(=O)N2c3nc(C(=O)NC4CC4)ccc3N3CC[C@H]2C3)co1` [Example 255, (4S)—N7-cyclopropyl-N5-(2-methyloxazol-4-yl)-3,4-dihydro-1,4-methanopyrido[2,3-b][1,4]diazepine-5,7(2H)-dicarboxamide]: the Emax under setting [1] was above 150%. Besides, under setting [2], the “TRP Activity (EC1.5, concentration of test compound that results in 150% activation of SIRT1)” value is “B (EC1.5 1-25 μM)”.
Turning to `O=C(NCc1nnn[nH]1)c1ccc2c(n1)N(C(=O)Nc1cc(OC[C@H](O)CO)ccn1)[C@H]1CCN2C1` [Example 256, (4S)—N7-((1H-tetrazol-5-yl)methyl)-N5-(4-((R)-2,3-dihydroxypropoxy)pyridin-2-yl)-3,4-dihydro-1,4-methanopyrido[2,3-b][1,4]diazepine-5,7(2H)-dicarboxamide], under setting [1], the Emax was above 150%. Also, under setting [2], the “TRP Activity (EC1.5, concentration of test compound that results in 150% activation of SIRT1)” value is recorded as “B (EC1.5 1-25 μM)”.
With `NC(=O)c1ccc2c(n1)N(C(=O)Nc1ccccn1)[C@H]1CCN2C1` [Example 257, (4S)—N5-(pyridin-2-yl)-3,4-dihydro-1,4-methanopyrido[2,3-b][1,4]diazepine-5,7(2H)-dicarboxamide], the Emax under setting [1] is above 150%. Moreover, the “TRP Activity (EC1.5, concentration of test compound that results in 150% activation of SIRT1)” value under setting [2] is “B (EC1.5 1-25 μM)”.
On to `CN(C)C(=O)c1ccnc(NC(=O)N2c3nc(C(=O)NCC(F)(F)F)ccc3N3CC[C@H]2C3)c1` [Example 259, (4S)—N5-(4-(dimethylcarbamoyl)pyridin-2-yl)-N7-(2,2,2-trifluoroethyl)-3,4-dihydro-1,4-methanopyrido[2,3-b][1,4]diazepine-5,7(2H)-dicarboxamide], for which the Emax is above 150%. Moreover, the “TRP Activity (EC1.5, concentration of test compound that results in 150% activation of SIRT1)” value under setting [2] is “B (EC1.5 1-25 μM)”.
Consider `O=C(NCC(F)(F)F)c1cc(O)c2c(n1)N(C(=O)Nc1ccccn1)[C@H]1CCN2C1` [Example 261, (4S)-9-hydroxy-N5-(pyridin-2-yl)-N7-(2,2,2-trifluoroethyl)-3,4-dihydro-1,4-methanopyrido[2,3-b][1,4]diazepine-5,7(2H)-dicarboxamide], for which the Emax under setting [1] is above 150%. Moreover, the “TRP Activity (EC1.5, concentration of test compound that results in 150% activation of SIRT1)” value under setting [2] was “A (EC1.5<1 μM)”.
On to `C[C@@H](NC(=O)c1ccc2c(n1)N(C(=O)Nc1cc(C(=O)N[C@H]3CCOC3)ccn1)[C@H]1CCN2C1)C(F)(F)F` [Example 264, (4S)—N5-(4-(((S)-tetrahydrofuran-3-yl)carbamoyl)pyridin-2-yl)-N7-((R)-1,1,1-trifluoropropan-2-yl)-3,4-dihydro-1,4-methanopyrido[2,3-b][1,4]diazepine-5,7(2H)-dicarboxamide], for which, under setting [1], the Emax was below 150%. In addition, under setting [2], the “TRP Activity (EC1.5, concentration of test compound that results in 150% activation of SIRT1)” value was “C (EC1.5>25 μM)”.
The like results for `C[C@@H](NC(=O)c1ccc2c(n1)N(C(=O)Nc1cc(OCC(=O)O)ccn1)[C@H]1CCN2C1)C(F)(F)F` [Example 265, 2-((2-((4S)-7-(((R)-1,1,1-trifluoropropan-2-yl)carbamoyl)-2,3,4,5-tetrahydro-1,4-methanopyrido[2,3-b][1,4]diazepine-5-carboxamido)pyridin-4-yl)oxy)acetic acid] were, in that order, above 150% and “B (EC1.5 1-25 μM)”.
In the same order, the values of `C[C@@H](NC(=O)c1ccc2c(n1)N(C(=O)Nc1cc(OCCCO)ccn1)[C@H]1CCN2C1)C(F)(F)F` [Example 266, (4S)—N5-(4-(3-hydroxypropoxy)pyridin-2-yl)-N7-((R)-1,1,1-trifluoropropan-2-yl)-3,4-dihydro-1,4-methanopyrido[2,3-b][1,4]diazepine-5,7(2H)-dicarboxamide] are above 150% and “A (EC1.5<1 μM)”.
